# In patent US7071226B1, “Amino-functionalized 1,2,4-trioxanes useful as antimalarial agents and process for preparation thereof” (Council of Scientific and Industrial Research, priority 2004, dated 2006):
# Like-named read-outs stand apart in the source and are kept apart here.
# Key:
# [1] = system: multidrug resistant strain of Plasmodium yoelii Nigeriensis; test: Antimalarial activity against multidrug resistant P. yoelii in Swiss mice (4-day treatment, observed till day 28); format: in vivo; details: Swiss mice; for inhibition in vivo at 48 mg/kg/day / inhibition in vivo at 96 mg/kg/day / inhibition in vivo at 24 mg/kg/day: 96 h, read-out: % Suppression on Day 4; for inhibition in vivo at 48 mg/kg/day / inhibition in vivo at 96 mg/kg/day / inhibition in vivo at 24 mg/kg/day / % Suppression on Day 4: day 0-3, in groundnut oil
# Method: The antimalarial activity of the test compounds was evaluated in rodent using multidrug resistant strain of Plasmodium yoelii Nigeriensis in Swiss mice.
# Random bred Swiss mice of either sex (20±2 gm) were inoculated intraperitoneally with 1×10^5 P. yoelii (MDR) parasites on day zero. Treatments with test compounds were administered to group of 5 mice each at different dose levels ranging between 12–96 mg/kg/day. Treatment was administered in groundnut oil intramuscularly and orally for 4 consecutive days (day 0–3). Blood smears from experimental mice were observed on day 4 and 7, day 10 and thereafter at regular intervals till day 28 or death of animal. Parasitaemia level on day 4 was compared with vehicle control group and percent suppression of parasitaemia in treated groups was calculated. […] The dose at which no parasitaemia develop during the observation period was reported as curative dose.
# [2] = Plasmodium yoelii, po, 48 mg/kg/day, oral
# [3] = Plasmodium yoelii, po, 672 h, 48 mg/kg/day, oral, day 0-3, read-out: Mice alive on day-28 (converted)
# [4] = Plasmodium yoelii, po, 672 h, oral, day 0-3, read-out: Mice alive on day-28 (converted)
# [5] = Plasmodium yoelii, po, 24 mg/kg/day, oral
# [6] = 24 mg/kg/day, oral, day 0-3, 24 mg/kg/day
# [7] = 48 mg/kg/day, oral, day 0-3, 48 mg/kg/day
# [8] = 24 mg/kg/day, oral, 24 mg/kg/day
# [9] = Plasmodium yoelii, im, 672 h, im, day 0-3, read-out: Mice alive on day-28 (converted)
smiles,measurement,setting,value
C=C(c1ccccc1)C1COC2(CCC(Nc3ccc(F)cc3)CC2)OO1 (stereo not shown),melting point,,130 to 132 °C
C=C(c1ccc(Cl)cc1)C1COC2(CCC(Nc3ccc4c(c3)-c3ccccc3C4)CC2)OO1 (stereo not shown),melting point,,166 to 168 °C
C=C(c1ccc(OC)cc1)C1COC2(CCC(Nc3ccc(OC)cc3)CC2)OO1 (stereo not shown),melting point,,123 to 124 °C
"C=C(c1ccc(OC)cc1)C1COC2(CCC(Nc3cccc4ccccc34)CC2)OO1 (stereo not shown) [Compound 4df, {3-[1-(4-Methoxy-phenyl)-vinyl]-1,2,5-trioxa-spiro[5.5]undec-9-yl}-naphthalen-1-yl-amine]",inhibition in vivo at 48 mg/kg/day,[1]; [2],100%
same,inhibition in vivo at 96 mg/kg/day,"[1]; Plasmodium yoelii, po, oral",100%
same,responders at 48 mg/kg/day,[1]; [3],40%
same,responders at 96 mg/kg/day,[1]; [4],100%
"C=C(c1ccc(OC)cc1)C1COC2(CCC(Nc3ccccc3-c3ccccc3)CC2)OO1 (stereo not shown) [Compound 4dg, Biphenyl-2-yl-{3-[1-(4-methoxy-phenyl)-vinyl]-1,2,5-trioxa-spiro[5.5]undec-9-yl}-amine]",inhibition in vivo at 24 mg/kg/day,[1]; [5],91%
same,inhibition in vivo at 48 mg/kg/day,[1]; [2],100%
same,Mice alive on day-28,[1]; [6],1/5
same,Mice alive on day-28,[1]; [7],3/5
"C=C(c1ccc(OC)cc1)C1COC2(CCC(Nc3ccccc3-c3ccccc3)CC2)OO1 (stereo not shown) [Compound 4dh, Biphenyl-2-yl-{3-[1-(4-methoxy-phenyl)-vinyl]-1,2,5-trioxa-spiro[5.5]undec-9-yl}-amine]",% Suppression on Day 4,[1]; [8],100%
same,Mice alive on day-28,[1]; [6],5/5
same,% Suppression on Day 4,"[1]; 48 mg/kg/day, oral",100%
same,Mice alive on day-28,[1]; [7],5/5
"C=C(c1ccc(OC)cc1)C1COC2(CCC(Nc3cccc(C(F)(F)F)c3)CC2)OO1 (stereo not shown) [Compound 4dm, {3-[1-(4-Methoxy-Phenyl)-Vinyl]-1,2,5-Trioxa-Spiro[5.5]undec-9-yl}-(3-Trifluoromethyl-Phenyl)-Amine]",inhibition in vivo at 96 mg/kg/day,"[1]; Plasmodium yoelii, im, im",100%
same,responders at 96 mg/kg/day,[1]; [9],0%
same,inhibition in vivo at 24 mg/kg/day,[1]; [5],100%
same,inhibition in vivo at 48 mg/kg/day,[1]; [2],100%
same,inhibition in vivo at 96 mg/kg/day,"[1]; Plasmodium yoelii, po, oral",100%
same,responders at 24 mg/kg/day,"[1]; Plasmodium yoelii, po, 672 h, 24 mg/kg/day, oral, day 0-3, read-out: Mice alive on day-28 (converted)",100%
same,responders at 48 mg/kg/day,[1]; [3],100%
same,responders at 96 mg/kg/day,[1]; [4],100%
"C=C(c1ccc(C)cc1)C1COC2(CCC(Nc3ccccc3)CC2)OO1 (stereo not shown) [Compound 4ea, Phenyl-[3-(1-p-Tolyl-Vinyl)-1,2,5-Trioxa-Spiro[5.5]undec-9-yl]-Amine]",inhibition in vivo at 96 mg/kg/day,"[1]; Plasmodium yoelii, im, im",96%
same,responders at 96 mg/kg/day,[1]; [9],0%
same,inhibition in vivo at 96 mg/kg/day,"[1]; Plasmodium yoelii, po, oral",100%
same,responders at 96 mg/kg/day,[1]; [4],100%
"C=C(c1ccc(C)cc1)C1COC2(CCC(Nc3ccc(OC)cc3)CC2)OO1 (stereo not shown) [Compound 4eb, (4-Methoxy-Phenyl)-[3-(1-p-Tolyl-Vinyl)-1,2,5-Trioxa-Spiro[5.5]undec-9-yl]-Amine]",inhibition in vivo at 96 mg/kg/day,"[1]; Plasmodium yoelii, im, im",93%
same,responders at 96 mg/kg/day,[1]; [9],0%
same,inhibition in vivo at 96 mg/kg/day,"[1]; Plasmodium yoelii, po, oral",100%
same,responders at 96 mg/kg/day,[1]; [4],100%
"C=C(c1ccc(C)cc1)C1COC2(CCC(Nc3ccc(Cl)cc3)CC2)OO1 (stereo not shown) [Compound 4ec, (4-Chloro-Phenyl)-[3-(1-p-Tolyl-Vinyl)-1,2,5-Trioxa-Spiro[5.5]undec-9-yl]-Amine]",inhibition in vivo at 96 mg/kg/day,"[1]; Plasmodium yoelii, po, oral",100%
same,responders at 96 mg/kg/day,[1]; [4],100%
"C=C(c1ccc(C)cc1)C1COC2(CCC(Nc3cc(Cl)cc(Cl)c3)CC2)OO1 (stereo not shown) [Compound 4ed, (3,5-Dichloro-Phenyl)-[3-(1-Tolyl-Vinyl)-1,2,5-Trioxa-Spiro[5.5]undec-9-yl]-Amine]",Mice alive on day-28,"[1]; 24 mg/kg/day, oral, day 0-3",0/5
same,% Suppression on Day 4,[1]; [8],95%
same,% Suppression on Day 4,"[1]; 48 mg/kg/day, oral",100%
same,Mice alive on day-28,[1]; [7],4/5
"C=C(c1ccc(C)cc1)C1COC2(CCC(Nc3cc(Cl)cc(Cl)c3)CC2)OO1 (stereo not shown) [Compound 4ee, (3,5-Dichloro-Phenyl)-[3-(1-Tolyl-Vinyl)-1,2,5-Trioxa-Spiro[5.5]undec-9-yl]-Amine]",Mice alive on day-28,"[1]; 24 mg/kg/day, oral, day 0-3",0/5
same,% Suppression on Day 4,[1]; [8],81%
same,% Suppression on Day 4,"[1]; 48 mg/kg/day, oral",100%
same,Mice alive on day-28,[1]; [7],2/5
"C=C(c1ccc(C)cc1)C1COC2(CCC(Nc3cccc4ccccc34)CC2)OO1 (stereo not shown) [Compound 4eg, Naphthalen-1-yl-[3-(1-p-Tolyl-Vinyl)-1,2,5-Trioxa-Spiro[5.5]undec-9-yl]-Amine]",inhibition in vivo at 96 mg/kg/day,"[1]; Plasmodium yoelii, po, oral",100%
same,responders at 96 mg/kg/day,[1]; [4],100%
"C=C(c1ccc(C)cc1)C1COC2(CCC(Nc3ccc(-c4ccccc4)cc3)CC2)OO1 (stereo not shown) [Compound 4ej, Biphenyl-4-yl-[3-(1-p-tolyl-vinyl)-1,2,5-trioxa-spiro[5.5]undec-9-yl]-amine]",inhibition in vivo at 96 mg/kg/day,"[1]; Plasmodium yoelii, im, im",69%
same,responders at 96 mg/kg/day,[1]; [9],0%
same,inhibition in vivo at 48 mg/kg/day,[1]; [2],100%
same,inhibition in vivo at 96 mg/kg/day,"[1]; Plasmodium yoelii, po, oral",100%
same,responders at 48 mg/kg/day,[1]; [3],40%
same,responders at 96 mg/kg/day,[1]; [4],100%
"C=C(c1ccc(C)cc1)C1COC2(CCC(Nc3cccc(C(F)(F)F)c3)CC2)OO1 (stereo not shown) [Compound 4en, [3-(1-p-Tolyl-vinyl)-1,2,5-trioxa-spiro[5.5]undec-9-yl]-(3-trifluoromethyl-phenyl)-amine]",inhibition in vivo at 96 mg/kg/day,"[1]; Plasmodium yoelii, po, oral",100%
same,responders at 96 mg/kg/day,[1]; [4],60%
"CCO[C@H]1O[C@@H]2O[C@@]3(C)CC[C@H]4[C@H](C)CC[C@@H]([C@H]1C)[C@@]24OO3 [β-Arteether, reference compound]",Mice alive on day-28,"[1]; 24 mg/kg/day, oral, day 0-3",1/5
same,% Suppression on Day 4,"[1]; 24 mg/kg/day, oral",100%
same,Mice alive on day-28,"[1]; 48 mg/kg/day, oral, day 0-3",5/5
same,% Suppression on Day 4,"[1]; 48 mg/kg/day, oral",100%
